Results taken from patent EP4610269A1, “UROKINASE PLASMINOGEN ACTIVATOR SURFACE RECEPTOR (UPAR) LIGANDS FOR DIAGNOSTIC OR THERAPEUTIC USE” (3B Pharmaceuticals GmbH, priority 2024, dated 2025).
Read-outs that look alike come from different tables or passages of the source. Where a SMILES comes first, the peptide text is derived from it. Bridges are numbered along the chain shown (N, C = ends). Side-chain parts run from the residue outwards. [ ]: non-standard residue; d: D form. The star is where a group is joined. DOTA(Lu) = O=C1CN2CCN3CCN(CC(=O)*)CCN(CC2)CC(=O)[O][Lu]([O]1)[O]C(=O)C3; DOTA = O=C(O)CN1CCN(CC(=O)O)CCN(CC(=O)*)CCN(CC(=O)O)CC1; PEG12 = NCCOCCOCCOCCOCCOCCOCCOCCOCCOCCOCCOCCOCCC(=O)O; Hyp = O=C(O)[C@@H]1C[C@@H](O)CN1; hArg = N=C(N)NCCCC[C@H](N)C(=O)O; Pentanoyl(4-Me) = CC(C)CCC(=O)*; Cit = NC(=O)NCCC[C@H](N)C(=O)O; Butoxycarbonyl = CCCCOC(=O)*; dNMeA = CN[C@H](C)C(=O)O; Nva = CCC[C@H](N)C(=O)O; Hexanoyl = CCCCCC(=O)*; Pentanoyl = CCCCC(=O)*; AEEA = NCCOCCOCC(=O)O

Legend:
[1] = target: T1, uPAR-expressing HEC-265 human endometrial adenocarcinoma cells (Homo sapiens, UniProt Q03405); assay: Competitive FACS binding assay; settings: pIC50 category of FACS binding
T1 construct: Cell surface uPAR-expressing HEC-265 human endometrial adenocarcinoma cells; host or cells: HEC-265
T1 sequence (Q03405 23-335): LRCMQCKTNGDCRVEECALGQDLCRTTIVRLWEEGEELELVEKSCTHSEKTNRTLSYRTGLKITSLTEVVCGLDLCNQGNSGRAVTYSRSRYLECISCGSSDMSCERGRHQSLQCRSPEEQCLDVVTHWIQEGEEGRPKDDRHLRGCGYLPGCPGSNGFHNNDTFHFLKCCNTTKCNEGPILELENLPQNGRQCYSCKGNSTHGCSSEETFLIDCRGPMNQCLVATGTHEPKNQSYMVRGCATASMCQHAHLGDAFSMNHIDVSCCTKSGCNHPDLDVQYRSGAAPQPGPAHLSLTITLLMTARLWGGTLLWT
Summary of the method: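 Competitive displacement of a 10 nM biotinylated peptide from HEC-265 cells (1 h, 4 °C, PBS/1% BSA), detected via APC-streptavidin by flow cytometry. pIC50 from four-parameter logistic fit of median fluorescence versus concentration.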

human uPAR (uPAR-Fc) = target: T2, human uPAR (uPAR-Fc) (Homo sapiens, UniProt Q03405); assay: Surface plasmon resonance (SPR) assay, single cycle kinetics; type: binding; settings: pKD category for uPAR SPR activity assay, uPAR-Fc on Protein A-Chip, 25°C; for Kd: read-out: pKD CAT (converted)
T2 construct: comprising amino acids Leu23-Arg303 according to UniProt entry Q03405.1; purchased R&D Systems 10378-UK-100
T2 sequence (Q03405 23-303): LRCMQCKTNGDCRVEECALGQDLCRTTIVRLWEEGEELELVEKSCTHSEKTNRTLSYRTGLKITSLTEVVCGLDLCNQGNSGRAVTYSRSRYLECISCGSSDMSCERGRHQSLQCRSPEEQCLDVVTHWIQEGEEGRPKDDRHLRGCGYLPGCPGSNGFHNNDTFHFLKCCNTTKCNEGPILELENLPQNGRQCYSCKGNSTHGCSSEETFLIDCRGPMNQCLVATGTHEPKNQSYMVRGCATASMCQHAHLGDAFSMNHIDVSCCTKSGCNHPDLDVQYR
Summary of the method: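 uPAR-Fc (Leu23-Arg303 extracellular domains, human IgG1 Fc) captured on Protein A chip to ~2000 RU; single-cycle kinetics at 25°C in HEPES running buffer pH 7.4 with 0.1% DMSO. KD from double-referenced sensorgrams fitted to 1:1 Langmuir model, reported as pKD.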

[2] = Plasma stability assay (mouse plasma); type: in vitro ADME; settings: mouse plasma (sodium citrate 3.7%), 37°C, LC-MS quantification, read-out: % intact compound remaining after 6h incubation Mouse plasma
Description: In order to determine the stability of selected compounds of the invention in human and mouse plasma, a plasma stability assay was carried out. Such plasma stability assay measures degradation of compounds of the present invention in blood plasma. This is an important characteristic of a compound as compounds, with the exception of pro-drugs, which rapidly degrade in plasma, generally show poor in vivo efficacy. […] The stability is sufficient for the diagnostic, therapeutic and theragnostic use of these compounds according to the present invention.
The plasma stability samples were prepared by spiking 50 µl plasma aliquots (all sodium citrate 3.7%) with 1 µl of a 0.5 mM compound stock solution in DMSO. After vortexing the samples were incubated in a Thermomixer at 37°C for 0 and 6 hours. After incubation the samples were stored on ice until further treatment. All samples were prepared in duplicates.
A suitable internal standard was added to each sample (1 µl of a 0.5 mM stock solution in DMSO). Protein precipitation was performed using two different methods depending on the compound conditions as indicated in Table 13. • A) 250 µl of acetonitrile containing 1% trifluoroacetic acid was added. After incubation at room temperature for 30 min the precipitate was separated by centrifugation and 150 µl of the supernatant was diluted with 150 µl of 1% aqueous formic acid. • B) 150 µl of a zinc sulphate precipitation agent containing 78% 0.1 M zinc sulphate and 22% acetonitrile was added. After incubation at room temperature for 30 min the precipitate was separated by centrifugation. To 100 µl of the supernatant 10 µl of 1% formic acid was added followed by further incubation at 60°C for 10 min to complete the formation of the zinc chelate, if the compound contains a free DOTA moiety.
The determination of the analyte in the clean sample solutions was performed on an Agilent 1290 UHPLC system coupled to an Agilent 6530 Q-TOF mass spectrometer. The chromatographic separation was carried out on a Phenomenex BioZen XB-C18 HPLC column (50 x 2 mm, 1.7 µm particle size).
Two different elution gradients were applied using a mixture of 0.1% formic acid in water as eluent A and acetonitrile as eluent B: • A) 2% B to 41% in 7 min, 800 µl/min, 40°C. • B) 5% B to 50% B in 6 min, 800 µL/min, 40°C.
Mass spectrometric detection was performed in positive ion ESI mode by scanning the mass range from m/z 50 to 3000 with a sampling rate of 2 / sec.
From the mass spectrometric raw data the ion currents for the double or triple charged monoisotopic signal was extracted for both, the compound and the internal standard.
Quantitation was performed by external matrix calibration with internal standard using the integrated analyte signals.
Additionally, recovery was determined by spiking a pure plasma sample that only contained the internal standard after treatment with a certain amount of the compound.
Carry-over was evaluated by analysis of a blank sample (20% acetonitrile) after the highest calibration sample.
The result is stated as "% intact compound remaining after 6 h incubation" and means that from the amount of material at the start of the experiment the stated percentage is detected as unchanged material at the end of the experiment by LC-MS quantification. Since all compounds are more than 50% intact after 6 h they are considered as stable enough for diagnostic and therapeutic applications. Table 13: Results of the plasma stability assay

IC50 [1]	Kd (human uPAR (uPAR-Fc))	remaining at 6 h, 9.8 µM [2]	Kd (human uPAR (uPAR-Fc); single cycle kinetics)	pIC50 CAT [1]	pKD CAT (human uPAR (uPAR-Fc))	Compound
≤ 10 nM	< 1.58 nM	57%	–	–	–	CC[C@H](C)[C@@H]1NC(=O)[C@@H](C)NC(=O)[C@@H]2CCCN2C(=O)[C@H](Cc2ccccc2)NC(=O)[C@H](Cc2ccc(O)cc2)NC(=O)[C@H](CCCCNC(=O)CN2CCN(CC(=O)O)CCN(CC(=O)O)CCN(CC(=O)O)CC2)NC(=O)[C@H](CCCNC(=N)N)NC(=O)[C@@H](NC(=O)CCC(C)C)CSSC[C@@H](C(N)=O)NC(=O)[C@H](CC(C)C)NC1=O [UPAR-176, iHex-[Cys-Arg-Lys(DOTA)-Tyr-Phe-Pro-ala-Ile-Leu-Cys]-NH2] ({Pentanoyl(4-Me)}-CRK(DOTA)YFP[dA]ILC-NH2; disulfide 1-10)
≤ 10 nM	–	> 95%	< 1.58 nM	–	–	CCCCCC(=O)N[C@@H](CC(=O)O)C(=O)N[C@@H](CC(C)C)C(=O)N[C@H]1CSSC[C@@H](C(N)=O)NC(=O)[C@H](CC(C)C)NC(=O)[C@H]([C@@H](C)CC)NC(=O)[C@H](CCCCNC(=O)CN2CCN(CC(=O)O)CCN(CC(=O)O)CCN(CC(=O)O)CC2)NC(=O)[C@@H]2CCCN2C(=O)[C@H](Cc2ccccc2)NC(=O)[C@H](Cc2ccc(O)cc2)NC(=O)[C@H](CCSC)NC(=O)[C@H](CCCNC(=N)N)NC1=O [UPAR-351, Hex-Asp-Leu-[Cys-Arg-Met-Tyr-Phe-Pro-Lys(DOTA)-Ile-Leu-Cys]-NH2] (Hexanoyl-DLCRMYFPK(DOTA)ILC-NH2; disulfide 3-12)
–	–	–	–	A (pIC50 values ≥8.0)	A (pKD values ≥ 8.8)	Pent-[Cys-Cit-Lys(LuDOTA)-Tyr-Phe-Pro-nma-Ile-Nva-Cys]-NH2 (Pentanoyl-C[Cit]K(DOTA(Lu))YFP[dNMeA]I[Nva]C-NH2; disulfide 1-10; not fully specified; also: Lu(III) complexed by DOTA) [UPAR-151]

The next lines start with the compound.

Compound	IC50 [1]	Kd (human uPAR (uPAR-Fc))	remaining at 6 h, 9.8 µM [2]	Kd (human uPAR (uPAR-Fc); single cycle kinetics)	pIC50 CAT [1]	pKD CAT (human uPAR (uPAR-Fc))
CCCCC(=O)N[C@H]1CSSC[C@@H](C(N)=O)NC(=O)[C@H](CCC)NC(=O)[C@H]([C@@H](C)CC)NC(=O)[C@@H]2C[C@@H](O)CN2C(=O)[C@@H]2CCCN2C(=O)[C@H](Cc2ccccc2)NC(=O)[C@H](Cc2ccc(O)cc2)NC(=O)[C@H](CCCCNC(=O)CCOCCOCCOCCOCCOCCOCCOCCOCCOCCOCCOCCOCCNC(=O)CN2CCN(CC(=O)O)CCN(CC(=O)O)CCN(CC(=O)O)CC2)NC(=O)[C@H](CCCNC(N)=O)NC1=O [UPAR-200, Pent-[Cys-Cit-Lys(DOTA-PEG12)-Tyr-Phe-Pro-Hyp-Ile-Nva-Cys]-NHz] (Pentanoyl-C[Cit]K([PEG12-DOTA])YFP[Hyp]I[Nva]C-NH2; disulfide 1-10)	≤ 10 nM	< 1.58 nM	> 95%	–	–	–
CC[C@H](C)[C@@H]1NC(=O)[C@@H](C)NC(=O)[C@@H]2CCCN2C(=O)[C@H](Cc2ccccc2)NC(=O)[C@H](Cc2ccc(O)cc2)NC(=O)[C@H](CCC(N)=O)NC(=O)[C@@H](C)NC(=O)[C@@H](NC(=O)[C@H](CC(C)C)NC(=O)COCCOCCNC(=O)CN2CCN(CC(=O)O)CCN(CC(=O)O)CCN(CC(=O)O)CC2)CSSC[C@@H](C(N)=O)NC(=O)[C@H](CC(C)C)NC1=O [UPAR-216, DOTA-O2Oc-Leu-[Cys-ala-Gln-Tyr-Phe-Pro-ala-Ile-Leu-Cys]-NH2] ({DOTA-AEEA}-LC[dA]QYFP[dA]ILC-NH2; disulfide 2-11)	≥ 126 nM	> 100 nM	84%	–	–	–
CCCCOC(=O)N[C@H]1CSSC[C@@H](C(N)=O)NC(=O)[C@H](CCC)NC(=O)[C@H]([C@@H](C)CC)NC(=O)[C@@H]2C[C@@H](O)CN2C(=O)[C@@H]2CCCN2C(=O)[C@H](Cc2ccccc2)NC(=O)[C@H](Cc2ccc(O)cc2)NC(=O)[C@H](CCCCNC(=O)CN2CCN(CC(=O)O)CCN(CC(=O)O)CCN(CC(=O)O)CC2)NC(=O)[C@H](CCCNC(N)=O)NC1=O [UPAR-275, Butoc-[Cys-Cit-Lys(DOTA)-Tyr-Phe-Pro-Hyp-Ile-Nva-Cys]-NH2] (Butoxycarbonyl-C[Cit]K(DOTA)YFP[Hyp]I[Nva]C-NH2; disulfide 1-10)	≤ 10 nM	< 1.58 nM	70%	–	–	–
CCCCC(=O)N[C@H]1CSSC[C@@H](C(N)=O)NC(=O)[C@H](CCC)NC(=O)[C@H]([C@@H](C)CC)NC(=O)[C@@H]2C[C@@H](O)CN2C(=O)[C@@H]2CCCN2C(=O)[C@H](Cc2ccccc2)NC(=O)[C@H](Cc2ccc(O)cc2)NC(=O)[C@H](CCCCNC(=O)CN2CCN(CC(=O)O)CCN(CC(=O)O)CCN(CC(=O)O)CC2)NC(=O)[C@H](CCCCNC(=N)N)NC1=O [UPAR-278, Pent-[Cys-Har-Lys(DOTA)-Tyr-Phe-Pro-Hyp-Ile-Nva-Cys]-NH2] (Pentanoyl-C[hArg]K(DOTA)YFP[Hyp]I[Nva]C-NH2; disulfide 1-10)	≤ 10 nM	< 1.58 nM	87%	–	–	–
